{"source": "paper PMC8047676", "about": "(ACS Omega, 2021)", "key": {"CHIKV [1]": {"tested_on": "CHIKV", "details": "Vero A cells, cited from earlier work"}, "CHIKV [2]": {"tested_on": "CHIKV", "details": "cited from earlier work"}, "BHK-21 cells": {"tested_on": "BHK-21 cells", "experiment": "Microscopic observation of cell morphology", "type": "cell-based, hamster", "details": "5, 10 and 20 μM, 24 h, microscope"}, "[3]": {"tested_on": "CHIKV prototype strain S27", "experiment": "Plaque assay of CHIKV-infected BHK-21 cells", "type": "cell-based, Chikungunya virus (CHIKV)", "details": "for plaque numbers reduced: BHK-21 cells, CHIKV S27 MOI 0.01, 24 hpi"}, "CHIKV nsP2 protein": {"tested_on": "CHIKV nsP2 protein", "experiment": "Flow cytometry of nsP2 protein expression in infected BHK-21 cells", "type": "cell-based, Chikungunya virus (CHIKV)", "details": "for numbers of cells expressing nsP2 protein reduced: flow cytometry, 24 h post treatment"}, "[4]": {"tested_on": "CHIKV envelope E2 glycoprotein", "experiment": "Western blot of CHIKV E2 protein in infected BHK-21 cells", "type": "cell-based, Chikungunya virus (CHIKV)", "details": "24 h"}, "[5]": {"tested_on": "CHIKV nonstructural protein nsP2", "experiment": "Western blot of CHIKV nsP2 protein in infected BHK-21 cells", "type": "cell-based, Chikungunya virus (CHIKV)", "details": "24 h"}, "CHIKV nsP2 RNA": {"tested_on": "CHIKV nsP2 RNA", "experiment": "RT-PCR of CHIKV nsP2 RNA in infected BHK-21 cells", "type": "cell-based, Chikungunya virus (CHIKV)", "details": "24 h post treatment, normalized to GAPDH"}, "[6]": {"experiment": "MTT cellular cytotoxicity assay", "type": "cell-based", "details": "hamster, BHK-21 cells"}, "CHIKV E2 protein": {"tested_on": "CHIKV E2 protein", "experiment": "Flow cytometry of E2 protein expression in infected BHK-21 cells", "type": "cell-based, Chikungunya virus (CHIKV)", "details": "for percentages of infected cells showing E2 expression reduced: flow cytometry, 24 h post treatment"}, "CHIKV E2 RNA": {"tested_on": "CHIKV E2 RNA", "experiment": "RT-PCR of CHIKV E2 RNA in infected BHK-21 cells", "type": "cell-based, Chikungunya virus (CHIKV)", "details": "24 h post treatment, normalized to GAPDH"}, "[7]": {"details": "ribavirin treatment, concentration not given"}}, "note": "“And” between values parts separate entries of the source, which are not always exact repeats. Equal entries are not always repeated."}
{"smiles": "CCN(CC)CCCC(C)Nc1ccnc2cc(Cl)ccc12", "note": "(centres unmarked) [Chloroquine]", "values": [{"measurement": "IC50", "setting": "CHIKV [1]; read-out: IC50, inhibition of CHIKV replication", "result": 7, "unit": "µM"}, {"measurement": "IC90", "setting": "CHIKV [1]; read-out: IC90, inhibition of CHIKV replication", "result": 15, "unit": "µM"}, {"measurement": "IC50, antiviral effects in vitro", "setting": "CHIKV [2]", "result": 1.1, "unit": "µg/mL"}]}
{"smiles": "Cn1c(=O)c(C(=O)CCN2CCOCC2)c(O)c2ccccc21", "note": "[QVIR, 4-hydroxy-1-methyl-3-(3-morpholinopropanoyl)quinoline-2(1H)-one]", "values": [{"measurement": "morphological changes of BHK-21 cells", "setting": "BHK-21 cells", "result": "inertness"}, {"measurement": "plaque numbers reduced", "setting": "[3]; 5 μM", "result": 82.62, "unit": "%"}, {"measurement": "plaque numbers reduced", "setting": "[3]; 10 μM", "result": 97.86, "unit": "%"}, {"measurement": "plaque numbers reduced", "setting": "[3]; 20 μM", "result": 99.61, "unit": "%"}, {"measurement": "EC50", "setting": "[3]; Chikungunya virus, BHK-21, 24 h, read-out: EC50 (50% effective concentration) against CHIKV infection", "result": "2.2 ± 0.49", "unit": "µM"}, {"measurement": "numbers of cells expressing nsP2 protein reduced", "setting": "CHIKV nsP2 protein; 5 μM", "result": 43.25, "unit": "%"}, {"measurement": "numbers of cells expressing nsP2 protein reduced", "setting": "CHIKV nsP2 protein; 10 μM", "result": 54.04, "unit": "%"}, {"measurement": "numbers of cells expressing nsP2 protein reduced", "setting": "CHIKV nsP2 protein; 20 μM", "result": 71.48, "unit": "%"}, {"measurement": "E2 protein levels suppressed", "setting": "[4]; 5 μM", "result": 22.8, "unit": "%"}, {"measurement": "E2 protein levels suppressed", "setting": "[4]; 10 μM", "result": 45.8, "unit": "%"}, {"measurement": "E2 protein levels suppressed", "setting": "[4]; 20 μM", "result": 53.9, "unit": "%"}, {"measurement": "protein levels of nsP2 reduced", "setting": "[5]; 10 μM", "result": 63.4, "unit": "%"}, {"measurement": "protein levels of nsP2 reduced", "setting": "[5]; 20 μM", "result": 69.9, "unit": "%"}, {"measurement": "RNA levels of nsP2 decreased", "setting": "CHIKV nsP2 RNA; 5 μM", "result": 52.1, "unit": "%"}, {"measurement": "RNA levels of nsP2 decreased", "setting": "CHIKV nsP2 RNA; 10 μM", "result": 67.5, "unit": "%"}, {"measurement": "RNA levels of nsP2 decreased", "setting": "CHIKV nsP2 RNA; 20 μM", "result": "84% and 84.1%"}, {"measurement": "CC50 at 24 h", "setting": "[6]", "result": "> 200", "unit": "µM"}, {"measurement": "percentages of infected cells showing E2 expression reduced", "setting": "CHIKV E2 protein; 5 μM", "result": 44.60, "unit": "%"}, {"measurement": "percentages of infected cells showing E2 expression reduced", "setting": "CHIKV E2 protein; 10 μM", "result": 51.22, "unit": "%"}, {"measurement": "percentages of infected cells showing E2 expression reduced", "setting": "CHIKV E2 protein; 20 μM", "result": 67.7, "unit": "%"}, {"measurement": "RNA levels of E2 diminished", "setting": "CHIKV E2 RNA; 5 μM", "result": 39, "unit": "%"}, {"measurement": "RNA levels of E2 diminished", "setting": "CHIKV E2 RNA; 10 μM", "result": 55.6, "unit": "%"}, {"measurement": "RNA levels of E2 diminished", "setting": "CHIKV E2 RNA; 20 μM", "result": 74, "unit": "%"}]}
{"smiles": "NC(=O)c1ncn([C@@H]2O[C@H](CO)[C@@H](O)[C@H]2O)n1", "note": "[Ribavirin, reference compound]", "values": [{"measurement": "plaque numbers reduced", "setting": "[3]; 10 μM", "result": 99.15, "unit": "%"}, {"measurement": "viral nsP2 protein level by flow cytometry", "setting": "CHIKV nsP2 protein; [7]", "result": "decreased"}, {"measurement": "RNA levels of nsP2 decreased", "setting": "CHIKV nsP2 RNA; 10 μM", "result": 82.7, "unit": "%"}, {"measurement": "viral E2 protein level by flow cytometry", "setting": "CHIKV E2 protein; [7]", "result": "decreased"}, {"measurement": "RNA levels of E2 diminished", "setting": "CHIKV E2 RNA; 10 μM", "result": 75.8, "unit": "%"}]}
{"smiles": "C=C[C@H]1C[N@@]2CC[C@H]1C[C@H]2[C@H](O)c1ccnc2ccc(OC)cc12", "note": "[quinine]", "values": [{"measurement": "IC50, inhibits CHIKV in vitro", "setting": "CHIKV [2]", "result": 0.1, "unit": "µg/mL"}]}
